# Measured values: article PMC11953309 (Nature Communications, 2025)
# System: IBD mouse fecal-derived ex vivo microbial community
# Assay: Ex vivo screening on IBD mouse fecal-derived microbial community
# Format: cell-based, IL-10-deficient C57BL/6N mouse
structure (smiles),measurement,setting,value
CN[C@H](CC(C)C)C(=O)N[C@H]1C(=O)N[C@@H](CC(N)=O)C(=O)N[C@H]2C(=O)N[C@H]3C(=O)N[C@H](C(=O)N[C@H](C(=O)O)c4cc(O)cc(O)c4-c4cc3ccc4O)[C@H](O)c3ccc(c(Cl)c3)Oc3cc2cc(c3O[C@@H]2O[C@H](CO)[C@@H](O)[C@H](O)[C@H]2O[C@H]2C[C@](C)(N)[C@H](O)[C@H](C)O2)Oc2ccc(cc2Cl)[C@H]1O [vancomycin],Number of differentially abundant species,"10 μg/mL, 48 h anaerobic, mGAM, MaAsLin2 vs blank, FDR-adjusted p < 0.05, n = 3",73
same,"beta diversity (PCoA, Bray-Curtis) clustering vs blank","AIPs 10 μg/mL, vancomycin 1 μg/mL and 10 μg/mL, 48 h",notable differences
